According to patent US20170296550A1, “ARYL SULTAM DERIVATIVES AS RORc MODULATORS” (Genentech, Inc., priority 2013, published 2017):

Each molecule was assayed against T1, RORc (Homo sapiens, UniProt P51449) (assay: In Vitro RORc Ligand Binding Assay (25-[3H]hydroxycholesterol radioligand, filter plate)). Settings: RORc ligand binding domain 0.6 ug/mL; 6 nM 25-[3H]hydroxycholesterol; 3 h at 25° C.
T1 construct: host or cells: E. coli
T1 sequence (P51449 269-508 limits assumed): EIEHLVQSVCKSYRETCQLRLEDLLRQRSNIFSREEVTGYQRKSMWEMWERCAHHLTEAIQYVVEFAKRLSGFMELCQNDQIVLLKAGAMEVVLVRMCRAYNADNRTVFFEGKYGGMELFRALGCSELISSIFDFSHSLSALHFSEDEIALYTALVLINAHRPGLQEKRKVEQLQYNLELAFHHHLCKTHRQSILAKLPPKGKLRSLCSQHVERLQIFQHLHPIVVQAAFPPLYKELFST
Experimental: Example 68 In Vitro RORc Ligand Binding Assay
This assay was used to determine a compound's potency in inhibiting activity of RORc by determining, Kiapp, IC50, or percent inhibition values.
On day of the assay, 100 uL of 0.05% CHAPS (in deionized H2O) was added to all wells of the GFB Unifilter plate and allowed soak for 1 h. A wash buffer of 50 mM HEPES (pH 7.4), 150 mM NaCl, and 5 mM MgCl2 was prepared to wash the filter plate. To prepare an assay buffer, BSA was added to the wash buffer to reach 0.01% and DTT was added to reach 1 mM.
For IC50 mode, 10 mM compound stocks were serially diluted in DMSO with DMSO to give 20× required final concentration in DMSO (15 uL compound+30 uL DMSO). The 20× compound stocks were diluted in DMSO with Assay Buffer 4-fold to reach 5× the final test concentration in 25% DMSO (10 uL compound+30 uL Assay Buffer). Solutions were mixed by aspiration several times with a pipette set on 50 uL volume. For the assay, 10 uL of 5× compound stock solutions in 25% DMSO were added to the assay plate in duplicate.
For two point screening, 10 mM stock compound solutions were diluted in DMSO to obtain 200 uM (20× the high test concentration) and then diluted 10-fold further to reach 20 uM (20× the low test concentration). The 20× stocks were diluted 4-fold with Assay Buffer (10 uL compound+30 uL Assay Buffer) to reach 5× the test concentrations (50 uM and 5 uM) and 10 uL were added to two assay plates for the duplicate wells. With each concentration tested on 2 plates, each set of 80 compounds used 4 assay plates (1 uM and 10 uM, with n=2).
25-hydroxycholesterol (1 uM) was used to determine the level of NSB signal is prepared in DMSO as for compounds above, then diluted in Assay Buffer to give a final concentration of 5 uM. For 25-hydroxycholesterol in 25% DMSO/75% Assay Buffer; 10 uL per well was used for NSB samples. Wells for Total Binding and No Receptor sample determination contained 10 uL of 25% DMSO/75% Assay Buffer per well.
Radioligand (25-[^3H]hydroxycholesterol) Preparation
25-[^3H]hydroxycholesterol was dilute in Assay Buffer to obtain 15 nM and vortex to mix. Add 20 uL to all wells to reach 6 nM final in the assay.
Stock receptor solution was diluted in assay buffer to obtain 1.5 ug/mL in Assay Buffer. 20 uL was added to all wells. For No R samples, 20 uL Assay Buffer was substituted for receptor solution.
Assay plates were 96-well polypropylene V-bottom plates. 10 uL of 5× compound in 25% DMSO/75% Assay Buffer was added to Test wells. 10 uL of 25% DMSO/75% Assay Buffer was added to Total Binding or No Receptor wells. 10 uL of 5 uM 25-hydroxycholesterol in 25% DMSO/75% Assay Buffer was added to NSB wells. 20 uL of 15 nM 25-[^3H]hydroxycholesterol prepared in Assay Buffer was added to all wells. 20 uL of 1.5 ug/mL RORc receptor was added to wells (or […] Assay Buffer to No R wells). Following addition to the wells, the plates were incubated 3 h at 25° C.
Using a Packard Filtermate Harvester, the filter plate were washed 4 times following transfer of the incubated samples. Plates were dry-filtered completely (2 h at 50° C. or overnight at room temperature). 50 uL Microscint 0 was added to all wells and read on Topcount protocol Inverted.
Final concentrations were as follows: 50 mM HEPES buffer (pH 7.4); 150 mM NaCl; 1 mM DTT; 5 mM MgCl2; 0.01% BSA; 5% DMSO; 0.6 ug/mL RORc receptor; 6 nM 25-[^3H]hydroxycholesterol. For NSB wells, 1 uM 25-hydroxycholesterol was also present.

SMILES | IC50
C[C@H]1CCC(c2ccccc2)S(=O)(=O)N1Cc1ccc(-c2cccc(S(C)(=O)=O)c2)cc1F (stereo partly drawn) [Example 23, (3S)-2-(3-Fluoro-3′-methanesulfonyl-biphenyl-4-ylmethyl)-3-methyl-6-phenyl-[1,2]thiazinane 1,1-dioxide] | 212 nM
C[C@H]1CCC(c2ccccc2)S(=O)(=O)N1Cc1ccc(-c2ccc(C#N)nc2)cc1F (stereo partly drawn) [Example 24, 5-[3-Fluoro-4-((3S)-3-methyl-1,1-dioxo-6-phenyl-[1,2]thiazinan-2-ylmethyl)-phenyl]-pyridine-2-carbonitrilc] | 110 nM
CC(=O)Nc1ccc(-c2ccc(CN3[C@@H](C)CCC(c4ccccc4)S3(=O)=O)c(F)c2)cn1 (stereo partly drawn) [Example 26, N-{5-[3-Fluoro-4-((3S)-3-methyl-1,1-dioxo-6-phenyl-[1,2]thiazinan-2-ylmethyl)-phcnyl]-pyridin-2-yl}-acetamide] | 1910 nM
C[C@H]1CCC(c2ccccc2)S(=O)(=O)N1Cc1ccc(-c2ccc(C#N)cc2)cc1F (stereo partly drawn) [Example 27, 3′-Fluoro-4′-((3S)-3-methyl-1,1-dioxo-6-phenyl-[1,2]thiazinan-2-ylmethyl)-biphenyl-4-carbonitrile] | 102 nM
C[C@H]1CCC(c2ccccc2)S(=O)(=O)N1Cc1ccc(-c2ccc(C(N)=O)cc2)cc1F (stereo partly drawn) [Example 28, 3′-Fluoro-4′-((3S)-3-methyl-1,1-dioxo-6-phenyl-[1,2]thiazinan-2-ylmethyl)-biphenyl-4-carboxylic acid amide] | 37 nM
C[C@H]1CCC(c2ccccc2)S(=O)(=O)N1Cc1ccc(-c2cnn(C)c2)cc1F (stereo partly drawn) [Example 29, (3S)-2-[2-Fluoro-4-(1-methyl-1H-pyrazol-4-yl)-benzyl]-3-methyl-6-phenyl-[1,2]thiazinane 1,1-dioxide] | 727 nM
C[C@H]1CCC(c2ccccc2)S(=O)(=O)N1Cc1ccc(-c2ccc(S(C)(=O)=O)cc2)cc1F (stereo partly drawn) [Example 31, (3S)-2-(3-Fluoro-4′-methanesulfonyl-biphenyl-4-ylmethyl)-3-methyl-6-phenyl-[1,2]thiazinane 1,1-dioxide] | 28 nM
C[C@H]1CCC(c2ccccc2)S(=O)(=O)N1Cc1ccc(-c2ccccc2)cc1F (stereo partly drawn) [Example 32, (3S)-2-(3-Fluoro-biphenyl-4-ylmethyl)-3-methyl-6-phenyl-[1,2]thiazinane 1,1-dioxide] | 161 nM
C[C@H]1CCC(c2ccccc2)S(=O)(=O)N1Cc1ccc(-c2ccc(NS(C)(=O)=O)cc2)cc1F (stereo partly drawn) [Example 33, N-[3′-Fluoro-4′-((3S)-3-methyl-1,1-dioxo-6-phenyl-[1,2]thiazinan-2-ylmethyl)-biphenyl-4-yl]-methanesulfonamide] | 44 nM
C[C@H]1CCC(c2ccccc2)S(=O)(=O)N1Cc1ccc(-c2ccncc2)cc1F (stereo partly drawn) [Example 34, (3S)-2-(2-Fluoro-4-pyridin-4-yl-benzyl)-3-methyl-6-phenyl-[1,2]thiazinane 1,1-dioxide] | 463 nM
Cc1noc(C)c1-c1ccc(CN2[C@@H](C)CCC(c3ccccc3)S2(=O)=O)c(F)c1 (stereo partly drawn) [Example 35, (3S)-2-[4-(3,5-Dimethyl-isoxazol-4-yl)-2-fluoro-benzyl]-3-methyl-6-phenyl-[1,2]thiazinane 1,1-dioxide] | 534 nM
CNC(=O)c1ccc(-c2ccc(CN3[C@@H](C)CCC(c4ccccc4)S3(=O)=O)c(F)c2)cn1 (stereo partly drawn) [Example 36, 5-[3-Fluoro-4-((3S)-3-methyl-1,1-dioxo-6-phenyl-[1,2]thiazinan-2-ylmethyl)-phenyl]-pyridine-2-carboxylic acid methylamide] | 1600 nM
C[C@H]1CCC(c2ccccc2)S(=O)(=O)N1Cc1ccc(-c2ccc(S(C)(=O)=O)cn2)cc1F (stereo partly drawn) [Example 38, (3S)-2-[2-Fluoro-4-(5-methanesulfonyl-pyridin-2-yl)-benzyl]-3-methyl-6-phenyl-[1,2]thiazinane 1,1-dioxide] | 87 nM
C[C@H]1CCC(c2ccccc2)S(=O)(=O)N1Cc1ccc(-c2ccc(S(C)(=O)=O)nc2)cc1F (stereo partly drawn) [Example 39, (3S)-2-[2-Fluoro-4-(6-methanesulfonyl-pyridin-3-yl)-benzyl]-3-methyl-6-phenyl-[1,2]thiazinanc 1,1-dioxide] | 151 nM
C[C@H]1CCC(c2ccccc2)S(=O)(=O)N1Cc1ccc(-c2cnc(S(C)(=O)=O)nc2)cc1F (stereo partly drawn) [Example 40, (3S)-2-[2-Fluoro-4-(2-mcthanesulfonyl-pyrimidin-5-yl)-benzyl]-3-methyl-6-phenyl-[1,2]thiazinane 1,1-dioxide] | 989 nM
Cc1cccnc1COc1ccc(CN2[C@@H](C)CCC(c3ccccc3)S2(=O)=O)cc1 (stereo partly drawn) [Example 46, (3S)-3-Methyl-2-[4-(3-methyl-pyridin-2-ylmethoxy)-benzyl]-6-phenyl-[1,2]thiazinane 1,1-dioxide] | 153 nM
Cc1cnccc1COc1ccc(CN2[C@@H](C)CCC(c3ccccc3)S2(=O)=O)cc1 (stereo partly drawn) [Example 47, (3S)-3-Methyl-2-[4-(3-methyl-pyridin-4-ylmethoxy)-benzyl]-6-phenyl-[1,2]thiazinane 1,1-dioxide] | 205 nM
C[C@H]1CCC(c2ccccc2)S(=O)(=O)N1Cc1ccc(OCc2ncccn2)cc1 (stereo partly drawn) [Example 48, (3S)-3-Methyl-6-phenyl-2-[4-(pyrimidin-2-ylmethoxy)-benzyl]-[1,2]thiazinane 1,1-dioxide] | 1630 nM
C[C@H]1CCC(c2ccccc2)S(=O)(=O)N1Cc1ccc(OCc2cncn2C)cc1 (stereo partly drawn) [Example 49, (3S)-3-Methyl-2-[4-(3-methyl-3H-imidazol-4-ylmethoxy)-benzyl]-6-phenyl-[1,2]thiazinane 1,1-dioxide] | 295 nM
Cc1cnc(COc2ccc(CN3[C@@H](C)CCC(c4ccccc4)S3(=O)=O)cc2)nc1 (stereo partly drawn) [Example 51, (3S)-3-Methyl-2-[4-(5-methyl-pyrimidin-2-ylmethoxy)-benzyl]-6-phenyl-[1,2]thiazinane 1,1-dioxide] | 1180 nM
Cc1ncccc1COc1ccc(CN2[C@@H](C)CCC(c3ccccc3)S2(=O)=O)cc1 (stereo partly drawn) [Example 52, (3S)-3-Methyl-2-[4-(2-methyl-pyridin-3-ylmethoxy)-benzyl)-6-phenyl-[1,2]thiazinane 1,1-dioxide] | 57 nM
Cc1oncc1COc1ccc(CN2[C@@H](C)CCC(c3ccccc3)S2(=O)=O)cc1 (stereo partly drawn) [Example 53, (3S)-3-Methyl-2-[4-(5-methyl-isoxazol-4-ylmethoxy)-benzyl]-6-phenyl-[1,2]thiazinane 1,1-dioxide] | 208 nM
Cc1cc(COc2ccc(CN3[C@@H](C)CCC(c4ccccc4)S3(=O)=O)cc2)cc(C)n1 (stereo partly drawn) [Example 54, (3S)-2-[4-(2,6-Dimethyl-pyridin-4-ylmethoxy)-benzyl]-3-methyl-6-phenyl-[1,2]thiazinane 1,1-dioxide] | 295 nM
Cc1cc(COc2ccc(CN3[C@@H](C)CCC(c4ccccc4)S3(=O)=O)cc2)n(C)n1 (stereo partly drawn) [Example 55, (3S)-2-[4-(2,5-Dimethyl-2H-pyrazol-3-ylmethoxy)-benzyl]-3-methyl-6-phenyl-[1,2]thiazinane 1,1-dioxide] | 387 nM
C[C@H]1CCC(c2ccccc2)S(=O)(=O)N1Cc1ccc(OCCn2ccnc2)cc1 (stereo partly drawn) [Example 56, (3S)-2-[4-(2-Imidazol-1-yl-ethoxy)-benzyl]-3-methyl-6-phenyl-[1,2]thiazinane 1,1-dioxide] | 316 nM
